Where “and” joins values, the source holds several entries; their conditions need not be identical. Identical values can stand only once.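 48-hour exposure; five concentrations; linearly interpolated endpoints. Abbreviation: GI50, concentration required for 50% inhibition of growth. TGI denotes the concentration required for complete inhibition of growth.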
What was measured:
Assay in all cases: NCI anticancer screen, dose series, 48 h
[1] = tested on: M14 melanoma
[2] = tested on: SF-295 CNS
[3] = tested on: HS 578T breast
[4] = tested on: NCI-H226 lung
[5] = tested on: NCI/ADR-RES ovarian
[6] = tested on: NCI-H23 lung
[7] = tested on: SK-OV-3 ovarian
[8] = tested on: OVCAR-3 ovarian

| Compound | TGI [1] | TGI [2] | TGI [3] [µM] | TGI [4] | TGI [5] [µM] | TGI [6] | TGI [7] | TGI [8] | GI50 [1] | GI50 [2] | GI50 [3] [µM] | GI50 [4] | GI50 [5] [µM] | GI50 [6] | GI50 [7] | GI50 [8] |
| --- | --- | --- | --- | --- | --- | --- | --- | --- | --- | --- | --- | --- | --- | --- | --- | --- |
| CC(C)c1ccc(C(c2c(O)c3ccccc3oc2=O)c2c(O)c3ccccc3oc2=O)cc1 | 38.4 µM | 52 µM | 61.8 | 42.2 µM | 65.9 | 51.6 µM | 65.8 µM | 37.9 µM |  |  |  |  |  |  |  |  |
| CN(C)C[C@@H]1CCn2cc(c3ccccc32)C2=C(C(=O)NC2=O)c2cn(c3ccccc23)CCO1 | > 10 µM | > 10 µM | 8.88 | > 10 µM | > 10 | > 10 µM | > 10 µM | > 10 µM | 1.03 µM | 3.3 µM | 1.76 | 2 µM | 2.58 | 2.95 µM | 2.08 µM | 2.65 µM |
| Cc1nccc2c3ccc(OCc4cn(-c5ccc(Br)cc5)nn4)cc3n(CCCc3ccccc3)c12 | 2.47 µM | > 100 µM | 4.56 | 13.6 µM | 4.61 |  | > 100 µM | > 100 µM | 1.14 µM | > 100 µM | 1.31 | 1.75 µM | 1.79 |  | 31.2 µM | > 100 µM |
| CN1CCN(C(=O)[C@@]2(C)CC[C@]3(C)CC[C@]4(C)C(=CC[C@@H]5[C@@]6(C)CC[C@H](OC(=O)c7cccnc7)C(C)(C)[C@@H]6CC[C@]54C)[C@@H]3C2)CC1 | 3.1 µM | 3.05 µM | 3.14 | 24 µM | 3.72 | 3.39 µM | 22 µM | 3.29 µM | 1.62 µM | 1.62 µM | 1.45 | 10.2 µM | 1.75 | 1.62 µM | 10.4 µM | 1.74 µM |
| COc1cc(C(=O)c2cnc(-c3ccc4cc[nH]c4c3)[nH]2)cc(OC)c1OC |  |  | > 86.9 | 9 µM | 56 | 21 µM | 1.93 µM | 0.0477 µM |  |  | 0.0461 | 0.117 µM | 0.0371 | 0.0575 µM | 0.0358 µM | 0.0195 µM |
| C=C1C(=O)O[C@H]2C3OC3(C)CC/C=C(/C(=O)OC)[C@@H](OC(C)=O)[C@H](OC(=O)C3(C)OC3C)[C@H]12 (stereo not given in full) | 3.13 µM and 2.4 µM and 1.29 µg/mL | 14.8 µg/mL | 24.4 | 3.25 µM and 31 µg/mL |  | 7.27 µM and 6.54 µM | 18.9 µM and 48 µg/mL | 4.07 µM and 3.13 µg/mL | 1.5 µM and 850 nM and 0.499 µg/mL | 4.84 µg/mL |  | 1.6 µM and 8.12 µg/mL |  | 1.93 µM and 2.68 µM | 9.25 µM and 26.5 µg/mL | 1.37 µM and 0.984 µg/mL |
| CCOC(=O)Nc1cc2c(c(N)n1)N=C(c1ccccc1)CN2 | > 49 µM | 13.5 µM |  |  |  |  | 17.5 µM | < 0.0001 µM | < 0.0001 µM | < 0.0001 µM |  | 0.000221 µM |  | < 0.0001 µM | 0.0207 µM | < 0.0001 µM |
| CCN(CC)CCNc1ccc(N=Nc2cnc3ccccc3c2)c2ccccc12 | 3.29 µM | 3.38 µM | 7.3 | 3.66 µM | 5.15 | 3.07 µM | 3.2 µM | 3.43 µM | 1.79 µM | 1.77 µM | 2.62 | 1.71 µM | 2.29 | 1.6 µM | 1.72 µM | 1.78 µM |

Source: PubChem BioAssay (NCI)
